# Data: ChEMBL document CHEMBL1147909, “Methylenedisalicylic acid derivatives: new PTP1B inhibitors that confer resistance to diet-induced obesity” (Bioorg Med Chem Lett, 2007)
# Tests used:
# [1] = target: T1, Tyrosine-protein phosphatase non-receptor type 1 (Homo sapiens, UniProt P18031); assay: Inhibition of PTP1B after 10 mins
# T1 sequence (P18031 whole entry): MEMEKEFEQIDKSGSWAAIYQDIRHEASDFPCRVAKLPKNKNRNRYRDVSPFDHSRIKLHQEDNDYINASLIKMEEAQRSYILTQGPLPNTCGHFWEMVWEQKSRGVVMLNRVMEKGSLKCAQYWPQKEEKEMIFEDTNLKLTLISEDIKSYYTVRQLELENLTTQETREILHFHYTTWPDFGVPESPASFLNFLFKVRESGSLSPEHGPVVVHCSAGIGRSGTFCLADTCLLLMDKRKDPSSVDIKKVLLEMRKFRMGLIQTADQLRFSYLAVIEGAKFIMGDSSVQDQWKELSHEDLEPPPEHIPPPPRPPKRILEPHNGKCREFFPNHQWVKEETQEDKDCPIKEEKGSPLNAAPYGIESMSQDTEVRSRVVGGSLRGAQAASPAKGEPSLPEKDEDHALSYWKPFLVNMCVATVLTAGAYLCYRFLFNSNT
# [2] = Inhibition of LAR Tyrosine phosphatase D1; design: species or system Homo sapiens
# [3] = target: T2, Tyrosine-protein phosphatase non-receptor type 2 (Homo sapiens, UniProt P17706); assay: Inhibition of TC-PTP
# T2 sequence (P17706 whole entry): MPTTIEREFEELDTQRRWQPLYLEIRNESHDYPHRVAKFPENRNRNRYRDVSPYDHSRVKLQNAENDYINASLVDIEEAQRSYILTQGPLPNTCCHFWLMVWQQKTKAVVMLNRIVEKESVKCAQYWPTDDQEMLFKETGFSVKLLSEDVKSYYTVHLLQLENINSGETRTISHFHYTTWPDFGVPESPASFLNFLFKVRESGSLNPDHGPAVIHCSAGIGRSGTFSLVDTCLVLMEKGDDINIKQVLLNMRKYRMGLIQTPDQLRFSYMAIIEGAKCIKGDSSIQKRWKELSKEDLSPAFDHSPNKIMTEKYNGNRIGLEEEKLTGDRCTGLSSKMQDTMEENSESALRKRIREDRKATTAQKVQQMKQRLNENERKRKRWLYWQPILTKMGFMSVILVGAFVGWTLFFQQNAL
# [4] = target: T3, Tyrosine-protein phosphatase 1 (Saccharomyces cerevisiae S288c, UniProt P25044); assay: Inhibition of yeast PTP1
# T3 sequence (P25044 whole entry): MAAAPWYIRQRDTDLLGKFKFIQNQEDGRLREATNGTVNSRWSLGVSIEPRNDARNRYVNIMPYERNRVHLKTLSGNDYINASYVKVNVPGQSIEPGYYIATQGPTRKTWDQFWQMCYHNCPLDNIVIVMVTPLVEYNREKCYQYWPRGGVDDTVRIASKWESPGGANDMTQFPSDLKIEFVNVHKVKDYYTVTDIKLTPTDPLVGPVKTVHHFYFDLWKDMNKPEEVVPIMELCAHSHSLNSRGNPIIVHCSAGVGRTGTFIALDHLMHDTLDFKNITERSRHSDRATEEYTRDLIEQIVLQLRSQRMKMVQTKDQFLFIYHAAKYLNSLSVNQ
# [5] = target: Tyrosine-protein phosphatase non-receptor type 6 (Homo sapiens, UniProt P29350); assay: Inhibition of SHP-1 catalytic domain
# [6] = species: Homo sapiens; assay: Selectivity for PTP1B over TC-PTP
# [7] = system: Mus musculus; assay: Effect on high fat diet induced obesity in C57BL/6J Jms Slc mouse assessed as body weight at 5 g/kg; assay type: functional
# [8] = system: Mus musculus; assay: Effect on high fat diet induced obesity in C57BL/6J Jms Slc mouse assessed as liver weight at 5 g/kg; assay type: functional
# [9] = system: Mus musculus; assay: Effect on high fat diet induced obesity in C57BL/6J Jms Slc mouse assessed as epididymal adipose tissue weight at 5 g/kg; assay type: functional
# [10] = system: Mus musculus; assay: Effect on high fat diet induced obesity in C57BL/6J Jms Slc mouse assessed as retroperitoneal adipose tissue weight at 5 g/kg; assay type: functional
# Sequence of Tyrosine-protein phosphatase non-receptor type 6 (P29350 whole entry, the tested form may be a part): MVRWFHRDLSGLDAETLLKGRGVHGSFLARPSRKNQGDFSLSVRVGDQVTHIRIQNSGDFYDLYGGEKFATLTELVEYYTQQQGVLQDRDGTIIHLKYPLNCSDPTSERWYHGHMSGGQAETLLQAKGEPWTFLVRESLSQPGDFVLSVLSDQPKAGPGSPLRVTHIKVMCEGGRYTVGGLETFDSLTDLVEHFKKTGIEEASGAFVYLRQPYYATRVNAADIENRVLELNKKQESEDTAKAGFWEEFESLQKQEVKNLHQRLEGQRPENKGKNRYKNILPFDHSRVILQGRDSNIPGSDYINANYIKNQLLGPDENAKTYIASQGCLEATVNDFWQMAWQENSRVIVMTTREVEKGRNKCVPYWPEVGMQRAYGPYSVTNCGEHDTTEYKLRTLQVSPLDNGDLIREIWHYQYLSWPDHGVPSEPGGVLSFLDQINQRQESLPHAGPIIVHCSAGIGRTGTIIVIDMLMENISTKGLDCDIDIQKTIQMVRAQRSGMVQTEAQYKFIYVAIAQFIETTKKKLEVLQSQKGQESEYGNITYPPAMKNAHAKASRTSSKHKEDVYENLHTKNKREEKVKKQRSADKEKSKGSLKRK
smiles,measurement,setting,value
O=C(O)c1cc(Cc2cc(Br)c(O)c(C(=O)O)c2)cc(Br)c1O,IC50,[1],78 µM
O=C(O)c1cc(Cc2cc(C(=O)O)c(O)c(-c3ccccc3)c2)cc(-c2ccccc2)c1O,IC50,[2],> 2000 µM
same,IC50,[1],20 µM
same,Ki,[1],9.4 µM
same,IC50,[3],291 µM
same,Ki,[3],64 µM
same,IC50,[4],234 µM
same,IC50,[5],51 µM
same,Ki,[5],17 µM
same,Selectivity ratio,[6],> 10
same,Activity,[7],29.2 g
same,Activity,[8],1.03 g
same,Activity,[9],0.86 g
same,Activity,[10],0.26 g
O=C(O)c1cc(Cc2cc(Cc3ccccc3)c(O)c(C(=O)O)c2)cc(Cc2ccccc2)c1O,IC50,[2],> 2000 µM
same,IC50,[1],15 µM
same,Ki,[1],6.3 µM
same,IC50,[3],146 µM
same,Ki,[3],25 µM
same,IC50,[4],103 µM
same,IC50,[5],32 µM
same,Ki,[5],14 µM
same,Selectivity ratio,[6],> 10
O=C(O)C(=O)Nc1sc2c(c1C(=O)O)CCNC2,IC50,[1],500 µM
same,Ki,[1],11.5 µM
O=C(O)c1cc(Cc2cc(C(=O)O)c(O)c(-c3ccco3)c2)cc(-c2ccco2)c1O,IC50,[1],39 µM
COc1cc(Cc2cc(OC)c(O)c(C(=O)O)c2)cc(C(=O)O)c1O,IC50,[1],> 1000 µM
O=C(O)c1cc(Cc2cc(Cl)c(O)c(C(=O)O)c2)cc(Cl)c1O,IC50,[1],242 µM
Cc1cc(Cc2cc(C)c(O)c(C(=O)O)c2)cc(C(=O)O)c1O,IC50,[1],> 1000 µM
